According to ChEMBL document CHEMBL5050844 (2019):

Tests used:
[1] = Induction of allogenic human T cell activation at 3 uM assessed fold increase in cell proliferation; type: functional, T cell line
[2] = Induction of anti-CD3/CD28 antibodies-stimulated human T cell activation at 1.11 uM assessed fold increase in GM-CSF secretion measured by ELISA assay; type: functional, T cell line
[3] = Induction of anti-CD3/CD28 antibodies-stimulated human CD8+ T cell activation at 1.11 uM assessed fold increase in cell proliferation measured by flow cytometry analysis; type: functional, T cell line
[4] = Induction of anti-CD3/CD28 antibodies-stimulated human T cell activation at 10 uM assessed fold increase in GM-CSF secretion measured by ELISA assay; type: functional, T cell line
[5] = Induction of anti-CD3/CD28 antibodies-stimulated human T cell activation at 1.11 uM assessed fold increase in TNF-alpha secretion measured by ELISA assay; type: functional, T cell line
[6] = Induction of activation of human CD56+ CD3- NK cells co-cultured with human K562 cells in 1:1 ratio and assessed as increase in IFN-gamma secretion at 10 uM measured by ELISA assay; type: functional, Natural killer cell
[7] = Induction of anti-CD3/CD28 antibodies-stimulated human T cell activation at 4 uM assessed fold increase in IL-2 secretion measured by ELISA assay; type: functional, T cell line
[8] = Induction of activation of human CD56+ CD3- NK cells co-cultured with human K562 cells in 1:1 ratio and assessed as increase in TNF-alpha secretion at 10 uM measured by ELISA assay; type: functional, Natural killer cell
[9] = Induction of activation of human CD56+ CD3- NK cells co-cultured with human K562 cells in 1:1 ratio and assessed as increase in TNF-alpha secretion at 2.5 uM measured by ELISA assay; type: functional, Natural killer cell
[10] = Induction of anti-CD3/CD28 antibodies-stimulated human T cell activation at 10 uM assessed fold increase in IFN-gamma secretion measured by ELISA assay; type: functional, T cell line
[11] = Induction of anti-CD3 antibodies-stimulated human exhausted CD4+ T cell activation assessed fold increase in CTLA4 expression measured by flow cytometry analysis; type: functional, T cell line; note: reference of the scale not given here
[12] = Induction of anti-CD3/CD28 antibodies-stimulated human T cell activation at 1 uM assessed fold increase in CD25 expression measured by ELISA assay; type: functional, T cell line
[13] = Induction of anti-CD3/CD28 antibodies-stimulated human CD8+ T cell activation at 10 uM assessed fold increase in CD69 expression measured by flow cytometry analysis; type: functional, T cell line
[14] = Induction of allogenic human T cell activation at 10 uM assessed fold increase in cell proliferation; type: functional, T cell line
[15] = Induction of anti-CD3 antibodies-stimulated human T cell activation at 1 uM assessed fold increase in CD25 expression measured by ELISA assay; type: functional, T cell line; note: reference of the scale not given here
[16] = Induction of anti-CD3/CD28 antibodies-stimulated human CD4+ T cell activation at 10 uM assessed fold increase in cell proliferation measured by flow cytometry analysis; type: functional, T cell line
[17] = Induction of anti-CD3/CD28 antibodies-stimulated human anergic T cell activation at 0.37 uM assessed fold increase in IFN-gamma secretion measured by ELISA assay; type: functional, T cell line
[18] = Induction of activation of human CD56+ CD3- NK cells co-cultured with human K562 cells in 1:1 ratio and assessed as increase in TNF-alpha secretion at 0.625 uM measured by ELISA assay; type: functional, Natural killer cell
[19] = Induction of anti-CD3 antibodies-stimulated human CD4+ T cell activation at 1.11 uM assessed fold increase in CD69 expression measured by flow cytometry analysis; type: functional, T cell line; note: reference of the scale not given here
[20] = Induction of anti-CD3 antibodies-stimulated human T cell activation at 10 uM assessed fold increase in GM-CSF secretion measured by ELISA assay; type: functional, T cell line; note: reference of the scale not given here
[21] = Induction of anti-CD3 antibodies-stimulated human T cell activation at 10 uM assessed fold increase in TNF-alpha secretion measured by ELISA assay; type: functional, T cell line; note: reference of the scale not given here
[22] = Induction of anti-CD3/CD28 antibodies-stimulated human CD8+ T cell activation at 10 uM assessed fold increase in cell proliferation measured by flow cytometry analysis; type: functional, T cell line
[23] = Induction of anti-CD3/CD28 antibodies-stimulated human T cell activation at 4 uM assessed fold increase in CD25 expression measured by ELISA assay; type: functional, T cell line
[24] = Induction of anti-CD3/CD28 antibodies-stimulated human T cell activation at 1.11 uM assessed fold increase in IFN-gamma secretion measured by ELISA assay; type: functional, T cell line
[25] = Induction of anti-CD3/CD28 antibodies-stimulated human anergic T cell activation at 1.11 uM assessed fold increase in IFN-gamma secretion measured by ELISA assay; type: functional, T cell line
[26] = Induction of anti-CD3 antibodies-stimulated human T cell activation at 1.11 uM assessed fold increase in IFN-gamma secretion measured by ELISA assay; type: functional, T cell line; note: reference of the scale not given here
[27] = Induction of anti-CD3/CD28 antibodies-stimulated human T cell activation at 0.3 uM assessed fold increase in IL-2 secretion measured by ELISA assay; type: functional, T cell line
[28] = Induction of anti-CD3/CD28 antibodies-stimulated human T cell activation at 10 uM assessed fold increase in TNF-alpha secretion measured by ELISA assay; type: functional, T cell line
[29] = Induction of anti-CD3 antibodies-stimulated human CD4+ T cell activation at 10 uM assessed fold increase in CD69 expression measured by flow cytometry analysis; type: functional, T cell line; note: reference of the scale not given here
[30] = Induction of anti-CD3 antibodies-stimulated human exhausted T cell activation assessed fold increase in GM-CSF secretion measured by ELISA assay; type: functional, T cell line; note: reference of the scale not given here
[31] = Induction of anti-CD3 antibodies-stimulated human T cell activation at 8 uM assessed fold increase in IL-2 secretion measured by ELISA assay; type: functional, T cell line; note: reference of the scale not given here
[32] = Induction of activation of human CD56+ CD3- NK cells co-cultured with human K562 cells in 1:1 ratio and assessed as increase in IFN-gamma secretion at 2.5 uM measured by ELISA assay; type: functional, Natural killer cell
[33] = Induction of anti-CD3 antibodies-stimulated human CD8+ T cell activation at 1.11 uM assessed fold increase in cell proliferation measured by flow cytometry analysis; type: functional, T cell line; note: reference of the scale not given here
[34] = test system: B cell; assay: Induction of anti-IgM-stimulated human CD20+ B cell activation at 10 to 1000 uM assessed as increase in CD69 expression measured as mean fluorescence intensity AUC by flow cytometry analysis; type: functional, cell-based; conditions: dose 10-1000 µM
[35] = Induction of anti-CD3 antibodies-stimulated human exhausted T cell activation assessed fold increase in IFN-gamma secretion measured by ELISA assay; type: functional, T cell line; note: reference of the scale not given here
[36] = Induction of anti-CD3 antibodies-stimulated human T cell activation at 1 uM assessed fold increase in IL-2 secretion measured by ELISA assay; type: functional, T cell line; note: reference of the scale not given here
[37] = Induction of anti-CD3/CD28 antibodies-stimulated human CD4+ T cell activation at 1.11 uM assessed fold increase in CD69 expression measured by flow cytometry analysis; type: functional, T cell line
[38] = Induction of anti-CD3 antibodies-stimulated human CD8+ T cell activation at 10 uM assessed fold increase in cell proliferation measured by flow cytometry analysis; type: functional, T cell line; note: reference of the scale not given here

Structure (SMILES): C[C@H](Cc1nncn1C)c1cccc(N2Cc3c(cc(CN4CC[C@H](F)C4)cc3C(F)(F)F)C2=O)c1
- fold change (FC) [1]: 2.01
- fold change (FC) [2]: >4
- fold change (FC) [3]: >4
- fold change (FC) [4]: >4
- fold change (FC) [5]: 2.01
- fold change (FC) [6]: >=5
- fold change (FC) [7]: >=7.5
- fold change (FC) [8]: 2.01
- fold change (FC) [9]: >=5
- fold change (FC) [10]: >4
- fold change (FC) [11]: >1.61
- fold change (FC) [12]: 1.31
- fold change (FC) [13]: 1.201
- fold change (FC) [14]: >3
- fold change (FC) [15]: >=1.001
- fold change (FC) [16]: >4
- fold change (FC) [17]: >4.01
- fold change (FC) [18]: 2.01
- fold change (FC) [19]: >1.601
- fold change (FC) [20]: >4
- fold change (FC) [21]: 1.51
- fold change (FC) [22]: >4
- fold change (FC) [23]: 1.31
- fold change (FC) [24]: >4
- fold change (FC) [25]: >4.01
- fold change (FC) [26]: 3.01
- fold change (FC) [27]: 5
- fold change (FC) [28]: 2.01
- fold change (FC) [29]: >1.601
- fold change (FC) [30]: >1.61
- fold change (FC) [31]: >=0.201
- fold change (FC) [32]: >=5
- fold change (FC) [33]: >4
- AUC [34]: 1.01
- fold change (FC) [35]: >1.61
- fold change (FC) [36]: 0.151
- fold change (FC) [37]: >1.601
- fold change (FC) [38]: >4

Structure (SMILES): Cn1cnnc1[C@@H]1C[C@@H]1c1cccc(N2Cc3c(ccnc3C(F)(F)F)C2=O)c1
- fold change (FC) [1]: <=2
- fold change (FC) [2]: <=1.5
- fold change (FC) [3]: <=2
- fold change (FC) [4]: 2.01
- fold change (FC) [5]: <=1.5
- fold change (FC) [6]: 2.01
- fold change (FC) [7]: 1.01
- fold change (FC) [8]: 1.01
- fold change (FC) [9]: <=1
- fold change (FC) [10]: <=2
- fold change (FC) [11]: <=1.4
- fold change (FC) [12]: 1.01
- fold change (FC) [13]: 1.201
- fold change (FC) [14]: <=2
- fold change (FC) [15]: 0.601
- fold change (FC) [16]: >4
- fold change (FC) [17]: <=2.5
- fold change (FC) [18]: <=1
- fold change (FC) [19]: <=1.2
- fold change (FC) [20]: <=1.5
- fold change (FC) [21]: 1.51
- fold change (FC) [22]: 2.01
- fold change (FC) [23]: 1.01
- fold change (FC) [24]: <=2
- fold change (FC) [25]: <=2.5
- fold change (FC) [26]: <=2
- fold change (FC) [27]: 1.01
- fold change (FC) [28]: 2.01
- fold change (FC) [29]: <=1.2
- fold change (FC) [30]: <=1.4
- fold change (FC) [31]: 0.101
- fold change (FC) [32]: <=1
- fold change (FC) [33]: <=2
- AUC [34]: 1.01
- fold change (FC) [35]: <=1.4
- fold change (FC) [36]: 0.051
- fold change (FC) [37]: <=1.2
- fold change (FC) [38]: <=2

Structure (SMILES): Cc1cc(C(=O)Nc2cccc([C@@H](C)Cc3nncn3C)c2)nc(C2CC2)n1
- fold change (FC) [1]: <=2
- fold change (FC) [2]: 1.51
- fold change (FC) [3]: 2.01
- fold change (FC) [4]: 2.01
- fold change (FC) [5]: <=1.5
- fold change (FC) [6]: 2.01
- fold change (FC) [7]: 2.51
- fold change (FC) [8]: 1.01
- fold change (FC) [9]: <=1
- fold change (FC) [10]: >4
- fold change (FC) [11]: <=1.4
- fold change (FC) [12]: 1.01
- fold change (FC) [13]: 1.201
- fold change (FC) [14]: <=2
- fold change (FC) [15]: 0.801
- fold change (FC) [16]: >4
- fold change (FC) [17]: <=2.5
- fold change (FC) [18]: <=1
- fold change (FC) [19]: 1.401
- fold change (FC) [20]: 1.51
- fold change (FC) [21]: <=1.5
- fold change (FC) [22]: >4
- fold change (FC) [23]: 1.01
- fold change (FC) [24]: 3.01
- fold change (FC) [25]: <=2.5
- fold change (FC) [26]: <=2
- fold change (FC) [27]: 1.01
- fold change (FC) [28]: 2.01
- fold change (FC) [29]: >1.601
- fold change (FC) [30]: <=1.4
- fold change (FC) [31]: 0.101
- fold change (FC) [32]: 1.01
- fold change (FC) [33]: 2.01
- AUC [34]: 1.01
- fold change (FC) [35]: <=1.4
- fold change (FC) [36]: 0.051
- fold change (FC) [37]: 1.401
- fold change (FC) [38]: >4
